In PMC10859961, “Ir(III) Half-Sandwich Photosensitizers with a π-Expansive Ligand for Efficient Anticancer Photodynamic Therapy” (Journal of Medicinal Chemistry, 2024):
Where two headings read alike, the source gives them in different places.

Assays:
A549 cells [1] = experiment: Mitochondrial membrane potential (JC-1, flow cytometry); format: cell-based, human; conditions: positive control, 5 μM, 30 min
Procedure: A549 cells were seeded onto 24-well plates. 24 h later, cells were incubated for 4 h with complexes 2, 4, 6, and 8 at 10 nM and then photoactivated or kept in the dark for an additional hour. Next, the cells were washed with PBS and harvested by trypsinization. Mitochondrial membrane potential changes were immediately measured by the JC-1 (5,5′,6,6′-tetrachloro-1,1′,3,3′-tetraethylbenzimidazolocarbo-cyanine iodide) Mitochondrial Membrane Potential Detection Kit (Biotium), according to the manufacturer’s instructions. As positive control, the cells were coincubated with CCCP (Sigma) at 5 μM for 30 min to disrupt the mitochondrial membrane potential. For each treatment, the fluorescence of 1 × 10^4 cells was analyzed by a Novocyte flow cytometer. JC-1 red aggregates were detected at a wavelength of 590 nm (FL2) and JC-1 green monomers at 529 nm (FL1).

A549 cells [2] = experiment: Cell death mechanism (Annexin V-FITC / propidium iodide); format: cell-based, human; conditions: positive control 50 μM for 24 h
Procedure: The cell death mechanism was analyzed with the Vybrant Apoptosis Assay Kit (Molecular Probes). A549 cells seeded in 12-well plates at a density of 1 × 10^5 cells per well were treated with complex 6 at the corresponding IC50,light × 5 under photoactivation conditions. Cisplatin at 50 μM was used as positive control. 4 and 20 h after the irradiation, cells were collected by trypsinization and immediately stained with Annexin V-FITC and propidium iodide according to the manufacturer’s instructions. The median fluorescence of 10,000 cells of each sample was analyzed by flow cytometry. Annexin-FITC staining was detected at a wavelength of 520 nm (FL1) and propidium iodide was detected at 617 nm (FL2).

[3] = test system: porcine red blood cells (RBC); experiment: Hemolytic activity (hemoglobin release); format: cell-based; conditions: dark, 1 hour
Procedure: The hemolytic activities of the complexes were determined by measuring hemoglobin release from porcine red blood cells (RBC). First, fresh porcine blood commercially obtained was diluted to 5% v/v in PBS solution and washed three times with PBS by centrifugation at 1000 rcf for 10 min. Then, RBC suspension (150 μL) was mixed with 150 μL of each complex at concentrations ranging from 1 to 50 μM. A solution of 0.2% Triton X-100 in PBS was used as positive control to induce complete hemolysis. PBS alone was used as negative control. Samples were incubated at 37 °C for 1 h in an orbital shaker (50 rpm) and then centrifuged at 3500 rcf for 10 min. 80 μL aliquots of the supernatant were transferred to a 96-well plate and diluted with 80 μL of Milli-Q water. Hemolysis was evaluated by measuring the absorbance of the samples at 540 nm with a Synergy 4 plate reader (BioTek, Winooski). The percentage of hemolysis (H) was calculated using eq 4: [drawing 25] 4 where As is the absorbance for a given sample, An is the absorbance for the negative control, and Ap is the absorbance for the positive control. Each sample was tested in triplicate.

A549 cancer cells = experiment: MTT cell viability assay, dark or photoactivated; format: cell-based, human; conditions: A549, MTT; for IC50: 4 h incubation
Procedure: Cells were cultured in 96-well plates at a density of 3000 (A549), 2500 (HeLa), or 5000 (PC-3, 1BR.3.G, and MRC-5) cells per well in cell culture medium and allowed to attach for 24 h. Solutions of the complexes at different concentrations were prepared for cell treatments. In all cases, the solid compounds were weighed using an analytical balance (Mettler Toledo AX205DR) to ensure precise measurements. Subsequently, 5 mM solutions were prepared using DMSO. Solutions were then diluted in water to reach a concentration of 1 mM and then, aliquots were taken and diluted in culture medium to obtain solutions ranging from 0 to 50 μM. […] The cells were treated with these solutions in dark conditions or following the photoactivation protocol (see below). 48 h later the treatments were removed, and cells were washed with phosphate-buffered saline (PBS).
Initially, the effect of the complexes on the cell viability was determined by the 3-(4,5-dimethylthiazol-2-yl)-2,5-diphenyltetrazolium bromide (MTT) assay.[147] The cells were incubated for 2 h with 100 μL of culture medium together with 10 μL of MTT (Sigma-Aldrich) at 0.5 mg/mL. After discarding the medium, DMSO was added to each well to dissolve the purple formazan crystals. The absorbance of each well was determined on a Multiscan Plate Reader (Synergy 4, Biotek, Winooski) at a wavelength of 570 nm. Cell viability was also assessed using the CyQUANT Direct Cell Proliferation Assay (Thermo Fisher Scientific), following the manufacturer’s instructions. Briefly, after the treatments, the cells were washed with PBS, and an equal volume of culture medium and CyQUANT mix was added to each well. The plates were then incubated for 1 h at 37 °C. Subsequently, the fluorescence intensity was bottom read using a Multiscan Plate Reader (Synergy 4, Biotek, Winooski) with excitation and emission filters of 485 and 528 nm, respectively. In both assays, at least three replicates were measured for each treatment. The concentration that reduces the cell viability by 50% (IC50) was established using the Gen5 software (BioTek). Three independent experiments were carried out for each compound. […] The phototoxicity index (PI = IC50,dark/IC50,light) was determined.
To assess the photodynamic activity of the complexes, cells were incubated with the complexes for 4 h to enable their intracellular accumulation. The cells were then irradiated with light with a wavelength of 460 nm (blue), 530 nm (green), or 655 nm (red) for 1 h using a LED system (LuxLight) with an effective power of 6.7 mW cm^–2, which provides a total light dose of 24.1 J cm^–2. The LED system was positioned at 25 mm from the cell culture plates.

CT26 = test system: CT26; design: method as in p (Pozza et al., Inorg. Chem. 2023); conditions: 540 nm, dose 9 J cm‐2, ref p (Pozza et al., Inorg. Chem. 2023); cited from earlier work
calf thymus DNA (CT-DNA) = experiment: Competitive EtBr displacement assay; format: binding; conditions: CT-DNA saturated with EtBr; 1 h, room temperature; read-out: C50 (50% reduction of EtBr fluorescence)
Procedure: To investigate the capacity of the complexes to intercalate into DNA, the competitive ethidium displacement assay was carried out as previously described[149] with minor modifications. Stock solutions of 20 μM calf thymus DNA (CT-DNA) and 25 μM Ethidium bromide (EtBr) were prepared in saline TE (50 mM NaCl, 10 mM tris(hydroxymethyl) aminomethane–HCl, 0.1 mM ethylenediaminetetracetic acid (EDTA), pH 7.4). Serial dilutions of metal complexes were prepared at concentrations ranging from 20 to 400 μM from a 1 mM stock solution containing 20% DMSO. The assay was carried out by mixing 25 μL of CT-DNA and 25 μL of EtBr with 50 μL of each compound dilution, on a black 96-well plate. The plate was incubated at room temperature for 1 h and the fluorescence was measured on a Synergy 4 microplate reader (Biotek, Winooski), with excitation wavelength set to 500 nm, and emission wavelength set to 530–800 nm. The fluorescence emission at 590 nm was used to measure the C50, corresponding to the concentration of compound required to induce a 50% decrease in the fluorescence of the EtBr. Experiments were performed in triplicate.

[4] = 1O2 quantum yield determination with DPBF; conditions: acetonitrile; 470 nm blue light
Procedure: It was performed for complexes 1–8 in acetonitrile according to a relative procedure adapted from the literature[132]−[134] based on monitoring the oxidation of 1,3-diphenylisobenzofuran (DPBF, yellow) to 1,2-dibenzoylbenzene (colorless) photosensitized by the Ir(III) complexes. DPBF was used as an ^1O2 scavenger due to its fast reaction with this molecule. Fresh stock air-equilibrated solutions of photosensitizers (6.00 × 10^–6 M) and DPBF (1.50 × 10^–4 M) in acetonitrile were prepared. In a quartz cell, 1 mL of DPBF solution, 0.5 mL of complex solution, and 1.5 mL of acetonitrile were mixed to prepare a final solution with 5.00 × 10^–5 M DPBF and 1.00 × 10^–6 M complex. The final solutions were studied by recording UV–vis absorption spectra at room temperature in dark conditions (over a period of 6 min with time intervals of 2 min), under blue light irradiation (λexc = 470 nm, “Medusa” photoreactor) and under green light irradiation (λexc = 530 nm, “Medusa” photoreactor) for 5 s irradiation intervals during a total exposure period of 20 s. Absorption UV–vis spectra were recorded after every irradiation interval.
The consumption of DPBF probe was measured by monitoring its absorbance intensity decrease at 410 nm with irradiation time. ^1O2 generation quantum yield (ϕΔ) was calculated from eq 1 using Rose Bengal or [Ru(bpy)3]^2+ as reference for complexes with pbpz and pbpn ligands, respectively: [drawing 22] 1 where s and ref subscripts correspond to the complex and the reference, ϕΔ is the ^1O2 generation quantum yield (0.53 for Rose Bengal[135] and 0.56 for [Ru(bpy)3]Cl2[132] in degassed acetonitrile), S is the slope of the plots of the −ln(normalized absorbance) of DPBF at 410 nm vs the irradiation time, and F is the correction factor of absorption, which is given by F = 1–10^–O.D. (where O.D. is the optical density at 470 nm of solutions of complexes and references). The reproducibility of the results was confirmed by performing each experiment three times.
The stability of DPBF probe was studied in dark conditions and under light irradiation. In dark conditions and under green light irradiation the probe remains unaltered. However, under blue light irradiation, a photobleaching of DPBF was observed. Probe consumption was approximately 6.5% every 5 s. Therefore, a working interval of 20 s was chosen, where 75% of the probe remains stable. To calculate the ϕΔ, a correction factor was applied to the absorbance at 410 nm: a 6.5% of the previous value was added to each absorbance to counteract self-consumption of the probe (i.e., to the absorbance at 10 s, a 6.5% of the absorbance at 5 s was added).

[5] = Photocatalytic NADH oxidation (UV-vis); format: biochemical; design: key: TON = ΔNADH concentration after 1 h / photocatalyst concentration; conditions: first hour, complex 2.5 μM, NADH 100 μM
Procedure: Fresh stock solutions of the complexes at 7.50 μM in H2O/MeOH mixture (97.5/2.5, v/v) and NADH at 300 μM in H2O/MeOH mixture (97.5/2.5, v/v) were prepared. In a quartz cell, 1 mL of complex solution, 1 mL of NADH solution, and 1 mL of solvent mixture were mixed to prepare a final solution with 2.50 μM complex and 100 μM NADH (complex/NADH rate = 1/40). The solutions were studied by recording UV–vis absorption spectra in dark conditions and under blue light irradiation (λexc = 470 nm, “Medusa” photoreactor) at ambient temperature and various time intervals for 8 h. In addition, a solution of NADH at 100 μM was studied under blue light irradiation to confirm its photostability. The photocatalytic rate of the photosensitizers was evaluated by monitoring its absorbance decrease at 340 nm, which correspond to NADH oxidation.
The turnover numbers (TONs) of complexes were calculated by measuring the absorption difference at 340 nm after 1 h of reaction. TON was calculated from the difference in NADH concentration after 1 h divided by the concentration of photocatalyst (eq 5), where b is the optical path length (1 cm). The concentration of NADH was obtained using the extinction coefficient ε340 = 5751 M^–1 cm^–1.[40],[148] [drawing 26] 5

[6] = kept in the dark, viability after 48 h, read-out: IC50 dark
[7] = blue light 460 nm 1 h (24.1 J cm^–2), 48 h, read-out: IC50 blue light

Q: For `N#CC(C#N)=NNc1cccc(Cl)c1` [CCCP, carbonyl cyanide m-chlorophenyl hydrazone, reference compound], which “cells with red fluorescence (JC-1 aggregates), upper right quadrant” value (A549 cells [1]) is on record?
A: Its value is 21.9%.

Q: For `N.N.[Cl][Pt][Cl]` [Cisplatin, reference compound], which “cells in early apoptosis (AN+; IP−), lower right quadrant” value (A549 cells [2]) is on record?
A: Its value is 5.3%.

Q: What about the “cells in late apoptosis (AN+; IP+), upper right quadrant” value (A549 cells [2]) of the same compound?
A: The value was 26.1%.

Q: And the “cells in necrosis (AN–; IP+), upper left quadrant” value (A549 cells [2])?
A: The value was 6.6%.

Q: And the Hemolytic activity ([3]; 1 μM)?
A: Its Hemolytic activity is 0%.

Q: What about the Hemolytic activity ([3]; 5 μM) of the same compound?
A: Its Hemolytic activity is 0%.

Q: What about the Hemolytic activity ([3]; 10 μM) of the same compound?
A: The Hemolytic activity was 0%.

Q: And the Hemolytic activity ([3]; 25 μM)?
A: The Hemolytic activity was 0.2%.

Q: And the IC50 (A549 cancer cells; [6])?
A: Its IC50 is 8.9 ± 2 µM.

Q: Which PI (CT26) does the source give for `[Ru+2].c1ccc(-c2ccnc3c2ccc2c(-c4ccccc4)ccnc23)cc1.c1ccc(-c2ccnc3c2ccc2c(-c4ccccc4)ccnc23)cc1.c1cnc2c(c1)ccc1cccnc12` [[Ru(DIP)2(phen)]2+] here?
A: Its PI is 1111.

Q: What about the PI/Dose (CT26) of the same compound?
A: The PI/Dose was 123.4.

Q: With `Cc1c(C)c(C)[c-](C)c1C.F[B-](F)(F)F.c1ccc2nc3c4ccc[n+]5c4c4[c](cccc4c3nc2c1)[Ir]5[n+]1cc[nH]c1` [complex 3, [(η^5-C5Me5)Ir(Im)(pbpz)]BF4] as the compound, how does the IC50 (calf thymus DNA (CT-DNA)) read?
A: The IC50 was 16.1 µM.

Q: What about the “1O2 generation quantum yield (ϕΔ), DPBF” value [4] of the same compound?
A: Its value is 0.0399.

Q: And the “TON1h (NADH oxidation)” value ([5]; 470 nm blue light)?
A: The value was 2.28.

Q: What about the “TON1h (NADH oxidation)” value ([5]; dark) of the same compound?
A: Its value is 0.47.

Q: And the IC50 (A549 cancer cells; [7])?
A: The IC50 was 1.2 ± 0.1 µM.

Q: What about the IC50 (A549 cancer cells; green light 530 nm 1 h (24.1 J cm^–2), 48 h, read-out: IC50 green light) of the same compound?
A: Its IC50 is 2.5 ± 0.3 µM.

Q: What about the IC50 (A549 cancer cells; [6]) of the same compound?
A: The IC50 was 4.9 ± 0.7 µM.

Q: And the “PI green light (IC50,dark/IC50,light)” value (A549 cancer cells; green light 530 nm, 24.1 J cm^–2)?
A: The value was 2.0.

Q: With [(η^5-C5Me5)Ir(bhq)Cl] [complex 10] as the compound, how does the IC50 (A549 cancer cells; [7]) read?
A: The IC50 was 5.6 ± 0.4 µM.

Q: And the IC50 (A549 cancer cells; [6])?
A: The IC50 was 10 ± 0.3 µM.

Q: What about the “PI blue light (IC50,dark/IC50,light)” value (A549 cancer cells; blue light 460 nm, 24.1 J cm^–2) of the same compound?
A: Its value is 1.8.
